Data published in US12172995B2, “Substituted indole and indazole compounds” (BRISTOL-MYERS SQUIBB COMPANY, priority 2018, dated 2024).

Key:
Format in all cases: cell-based
human TLR9 = molecular target: T1, human TLR9 (Homo sapiens, UniProt Q9NR96); assay: TLR9 inhibition reporter assay (HEK-Blue SEAP); conditions: HEK-Blue cells overexpressing human TLR9, stimulated with ODN2006 5 nM, 22 hour incubation
T1 construct: host or cells: HEK-Blue cells
T1 sequence (Q9NR96 26-1032): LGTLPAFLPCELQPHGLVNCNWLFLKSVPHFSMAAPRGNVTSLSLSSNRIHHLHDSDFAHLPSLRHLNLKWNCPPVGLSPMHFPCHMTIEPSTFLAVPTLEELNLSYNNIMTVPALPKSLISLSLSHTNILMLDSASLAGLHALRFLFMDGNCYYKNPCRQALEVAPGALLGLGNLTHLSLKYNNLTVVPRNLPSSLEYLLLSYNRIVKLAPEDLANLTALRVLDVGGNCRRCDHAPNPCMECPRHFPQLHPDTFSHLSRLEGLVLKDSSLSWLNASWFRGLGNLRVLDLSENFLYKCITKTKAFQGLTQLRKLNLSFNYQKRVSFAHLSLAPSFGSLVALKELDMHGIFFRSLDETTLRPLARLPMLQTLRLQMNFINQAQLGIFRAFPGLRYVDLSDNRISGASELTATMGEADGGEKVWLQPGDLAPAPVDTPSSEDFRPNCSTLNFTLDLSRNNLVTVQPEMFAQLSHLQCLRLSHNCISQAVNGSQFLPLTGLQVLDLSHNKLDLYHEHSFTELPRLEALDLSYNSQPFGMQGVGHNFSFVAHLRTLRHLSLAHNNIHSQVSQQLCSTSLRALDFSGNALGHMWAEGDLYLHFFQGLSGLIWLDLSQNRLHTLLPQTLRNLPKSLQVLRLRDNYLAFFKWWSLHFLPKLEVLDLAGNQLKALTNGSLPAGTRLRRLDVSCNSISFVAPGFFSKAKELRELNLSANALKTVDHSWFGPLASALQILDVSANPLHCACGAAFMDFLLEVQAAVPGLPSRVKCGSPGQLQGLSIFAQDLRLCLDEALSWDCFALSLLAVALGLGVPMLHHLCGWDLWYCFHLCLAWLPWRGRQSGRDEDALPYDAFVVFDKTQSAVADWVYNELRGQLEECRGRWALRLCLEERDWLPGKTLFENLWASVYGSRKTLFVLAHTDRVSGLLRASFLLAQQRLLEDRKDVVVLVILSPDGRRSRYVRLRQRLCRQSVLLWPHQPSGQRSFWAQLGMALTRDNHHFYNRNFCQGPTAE
Procedure, shortened: (§1)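 Reporter HEK-Blue lines; cpd 0.05 nM–50 μM, 30 min preincubation RT; agonist: TLR7 gardiquimod 7.5 μM, TLR8 R848 15.9 μM, TLR9 ODN2006 5 nM; 22 h 37 °C; SEAP detected colorimetrically; % inhib vs known inhibitor.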

human TLR7 = molecular target: T2, human TLR7 (Homo sapiens, UniProt Q9NYK1); assay: TLR7 inhibition reporter assay (HEK-Blue SEAP); conditions: HEK-Blue cells overexpressing human TLR7, stimulated with gardiquimod 7.5 μM, 22 hour incubation
T2 construct: host or cells: HEK-Blue cells
T2 sequence (Q9NYK1 27-1049): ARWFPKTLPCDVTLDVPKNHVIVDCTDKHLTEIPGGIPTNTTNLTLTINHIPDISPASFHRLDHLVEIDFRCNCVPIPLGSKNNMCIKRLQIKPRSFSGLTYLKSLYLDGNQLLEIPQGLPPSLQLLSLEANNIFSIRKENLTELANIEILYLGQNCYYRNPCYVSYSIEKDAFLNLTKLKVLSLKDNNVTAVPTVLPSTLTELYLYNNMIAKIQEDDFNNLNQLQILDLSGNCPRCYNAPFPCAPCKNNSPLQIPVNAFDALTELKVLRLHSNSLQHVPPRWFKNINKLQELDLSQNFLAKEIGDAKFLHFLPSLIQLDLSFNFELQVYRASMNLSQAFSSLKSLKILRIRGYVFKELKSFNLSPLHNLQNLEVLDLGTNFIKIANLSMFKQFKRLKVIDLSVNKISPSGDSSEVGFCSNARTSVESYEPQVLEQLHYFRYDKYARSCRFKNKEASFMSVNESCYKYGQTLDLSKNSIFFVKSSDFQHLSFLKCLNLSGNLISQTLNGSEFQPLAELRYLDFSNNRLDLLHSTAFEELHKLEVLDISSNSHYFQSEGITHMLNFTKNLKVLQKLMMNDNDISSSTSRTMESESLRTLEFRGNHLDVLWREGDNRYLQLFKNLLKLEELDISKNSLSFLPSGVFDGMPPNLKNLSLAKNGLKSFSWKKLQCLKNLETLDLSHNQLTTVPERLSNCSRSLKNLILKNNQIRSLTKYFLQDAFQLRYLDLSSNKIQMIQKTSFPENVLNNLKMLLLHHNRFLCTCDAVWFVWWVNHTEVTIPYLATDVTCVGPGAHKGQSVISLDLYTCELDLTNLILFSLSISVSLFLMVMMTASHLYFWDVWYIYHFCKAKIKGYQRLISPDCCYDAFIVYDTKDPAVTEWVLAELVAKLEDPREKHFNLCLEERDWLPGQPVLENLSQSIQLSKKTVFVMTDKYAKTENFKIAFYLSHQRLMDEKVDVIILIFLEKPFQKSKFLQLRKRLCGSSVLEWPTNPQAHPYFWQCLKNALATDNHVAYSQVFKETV
Procedure, shortened: as §1

human TLR8 = molecular target: T3, human TLR8 (Homo sapiens, UniProt Q9NR97); assay: TLR8 inhibition reporter assay (HEK-Blue SEAP); conditions: HEK-Blue cells overexpressing human TLR8, stimulated with R848 15.9 μM, 22 hour incubation
T3 construct: host or cells: HEK-Blue cells
T3 sequence (Q9NR97 27-1041): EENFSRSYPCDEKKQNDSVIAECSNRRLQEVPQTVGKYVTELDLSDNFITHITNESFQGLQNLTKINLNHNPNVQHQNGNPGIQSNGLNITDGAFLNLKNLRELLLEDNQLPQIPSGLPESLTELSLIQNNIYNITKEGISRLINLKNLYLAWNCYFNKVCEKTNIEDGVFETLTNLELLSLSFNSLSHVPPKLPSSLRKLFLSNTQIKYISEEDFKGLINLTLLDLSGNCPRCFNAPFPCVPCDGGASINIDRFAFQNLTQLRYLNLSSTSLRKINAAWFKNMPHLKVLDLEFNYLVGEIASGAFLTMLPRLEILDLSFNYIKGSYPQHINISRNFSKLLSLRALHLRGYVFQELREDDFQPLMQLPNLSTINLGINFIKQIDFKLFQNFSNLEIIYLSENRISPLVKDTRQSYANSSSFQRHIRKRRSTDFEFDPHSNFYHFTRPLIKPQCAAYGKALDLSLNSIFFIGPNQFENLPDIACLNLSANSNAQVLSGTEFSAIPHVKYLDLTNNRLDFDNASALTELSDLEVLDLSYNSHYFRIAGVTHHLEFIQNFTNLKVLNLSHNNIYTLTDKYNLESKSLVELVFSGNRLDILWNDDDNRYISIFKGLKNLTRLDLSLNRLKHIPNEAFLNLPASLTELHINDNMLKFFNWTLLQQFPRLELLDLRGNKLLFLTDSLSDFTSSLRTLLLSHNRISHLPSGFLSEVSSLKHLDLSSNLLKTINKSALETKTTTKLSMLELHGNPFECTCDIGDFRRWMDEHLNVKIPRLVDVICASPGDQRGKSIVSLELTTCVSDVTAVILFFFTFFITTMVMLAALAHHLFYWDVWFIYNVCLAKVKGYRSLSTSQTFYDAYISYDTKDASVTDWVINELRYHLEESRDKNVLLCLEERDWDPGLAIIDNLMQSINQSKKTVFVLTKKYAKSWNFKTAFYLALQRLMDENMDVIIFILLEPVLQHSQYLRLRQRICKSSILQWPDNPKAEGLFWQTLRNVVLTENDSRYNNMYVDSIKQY
Procedure, shortened: as §1

Row | SMILES | IC50 (human TLR9) | IC50 (human TLR7) | IC50 (human TLR8)
1 | Cc1cc(-c2cc(C)c3ncnn3c2)cc2[nH]nc(C3CCN(CC(=O)N(C)C)CC3)c12 [Example 76, N,N-dimethyl-2-(4-(4-methyl-6-(8-methyl-[1,2,4]triazolo[1,5-a]pyridin-6-yl)-1H-indazol-3-yl)piperidin-1-yl) acetamide] | 2110 nM | 6.9 nM | 37.8 nM
2 | Cc1cc(-c2cc(C)c3ncnn3c2)cc2[nH]nc(C3CCN(CC(C)(C)O)CC3)c12 [Example 77, 2-methyl-1-(4-(4-methyl-6-(8-methyl-[1,2,4]triazolo[1,5-a]pyridin-6-yl)-1H-indazol-3-yl)piperidin-1-yl)propan-2-ol] | 2190 nM | 11.1 nM | 10.9 nM
3 | Cc1cc(-c2cc(C)c3ncnn3c2)cc2[nH]nc(C3CCN(C4CCOCC4)CC3)c12 [Example 78, 8-methyl-6-(4-methyl-3-(1-(tetrahydro-2H-pyran-4-yl)piperidin-4-yl)-1H-indazol-6-yl)-[1,2,4]triazolo[1,5-a]pyridine] | 24500 nM | 92.2 nM | 252 nM
4 | Cc1cc(-c2cc(C)c3ncnn3c2)cc2[nH]nc(C3CCN(C)CC3)c12 [Example 79, 8-methyl-6-(4-methyl-3-(1-methylpiperidin-4-yl)-1H-indazol-6-yl)-[1,2,4]triazolo[1,5-a]pyridine] | 6050 nM | 10.3 nM | 53.8 nM
5 | Cc1cc(-c2cc(C)c3ncnn3c2)cc2[nH]nc(C3CCC(N(C)C)CC3)c12 (stereo not drawn) [Example 80, N,N-dimethyl-4-(4-methyl-6-(8-methyl-[1,2,4]triazolo[1,5-a]pyridin-6-yl)-1H-indazol-3-yl) cyclohexan-1-amine] | 2840 nM | 3.8 nM | 2.5 nM
6 | Cc1cc(-c2cc(C)c3ncnn3c2)cc2[nH]nc(C3CCC(N(C)C)CC3)c12 (stereo not drawn) [Example 81, N,N-dimethyl-4-(4-methyl-6-(8-methyl-[1,2,4]triazolo[1,5-a]pyridin-6-yl)-1H-indazol-3-yl)cyclohexan-1-amine] | 1830 nM | 1.3 nM | 5.3 nM
7 | CCc1cc2c(C3CCNCC3)n[nH]c2cc1-c1cc(C)c2ncnn2c1 [Example 82, 6-(5-ethyl-3-(piperidin-4-yl)-1H-indazol-6-yl)-8-methyl-[1,2,4]triazolo[1,5-a]pyridine] | 2200 nM | 1.6 nM | 0.4 nM
8 | Cc1cc2c(C3CCNCC3)n[nH]c2cc1-c1cc(C)c2ncnn2c1C [Example 83, 5,8-dimethyl-6-(5-methyl-3-(piperidin-4-yl)-1H-indazol-6-yl)-[1,2,4]triazolo[1,5-a]pyridine] | 8010 nM | 45 nM | 5.5 nM
9 | Cc1cc2c(C3CCNCC3)n[nH]c2cc1-c1cc(C#N)c2ncnn2c1 [Example 84, 6-(5-methyl-3-(piperidin-4-yl)-1H-indazol-6-yl)-[1,2,4]triazolo[1,5-a]pyridine-8-carbonitrile] | 5610 nM | 33.4 nM | 15.7 nM
10 | Cc1cc2c(C3CCNCC3)n[nH]c2cc1-c1cc(-c2cncnc2)c2ncnn2c1 [Example 85, 6-(5-methyl-3-(piperidin-4-yl)-1H-indazol-6-yl)-8-(pyrimidin-5-yl)-[1,2,4]triazolo[1,5-a]pyridine] | 3940 nM | 33 nM | 1.5 nM
11 | COc1cc(-c2cc(C)c3ncnn3c2)cc2[nH]nc(C3CCNCC3)c12 [Example 86, 6-(4-methoxy-3-(piperidin-4-yl)-1H-indazol-6-yl)-8-methyl-[1,2,4]triazolo[1,5-a]pyridine] | 1290 nM | 5.8 nM | 21.8 nM
12 | CCc1cc2c(C3CCN(C(=O)CN(C)C)CC3)n[nH]c2cc1-c1cc(C)c2ncnn2c1 [Example 87, 2-(dimethylamino)-1-(4-(5-ethyl-6-(8-methyl-[1,2,4]triazolo[1,5-a]pyridin-6-yl)-1H-indazol-3-yl)piperidin-1-yl)ethan-1-one] | 11600 nM | 6.3 nM | 0.6 nM
13 | CCc1cc2c(C3CCN(C4CCOCC4)CC3)n[nH]c2cc1-c1cc(C)c2ncnn2c1 [Example 88, 6-(5-ethyl-3-(1-(tetrahydro-2H-pyran-4-yl)piperidin-4-yl)-1H-indazol-6-yl)-8-methyl-[1,2,4]triazolo[1,5-a]pyridine] | 14200 nM | 3.7 nM | 0.2 nM
14 | CCc1cc2c(C3CCN(C(C)C)CC3)n[nH]c2cc1-c1cc(C)c2ncnn2c1 [Example 90, 6-(5-ethyl-3-(1-isopropylpiperidin-4-yl)-1H-indazol-6-yl)-8-methyl-[1,2,4]triazolo[1,5-a]pyridine] | 7940 nM | 2.6 nM | 0.1 nM
15 | CCc1cc2c(C3CCN(CC(=O)N(C)C)CC3)n[nH]c2cc1-c1cc(C)c2ncnn2c1 [Example 91, 2-(4-(5-ethyl-6-(8-methyl-[1,2,4]triazolo[1,5-a]pyridin-6-yl)-1H-indazol-3-yl)piperidin-1-yl)-N,N-dimethylacetamide] | 14500 nM | 3.7 nM | 0.4 nM
